In patent US20260159520A1, “HETEROBIFUNCTIONAL COMPOUNDS AND METHODS OF TREATING DISEASE” (Halda Therapeutics OpCo, Inc., priority 2022, published 2026):

How the values were obtained:
CDK9 = target: T1, CDK9 (Homo sapiens, UniProt P50750); test: KdELECT binding assay, CDK9; settings: CDK9, Table 7
T1 construct: made in house; host or cells: E. coli BL21-derived host (T7 phage) or HEK-293 ('BEK-293' [sic])
Outline: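 Phage-tagged or HEK-derived DNA-tagged kinases competed 1 h at room temperature against bead-immobilised biotinylated ligand in SeaBlock/PBS/Tween/DTT buffer, 0.9% DMSO final. Bound kinase eluted with 0.5 μM free ligand and quantified by qPCR; Kd from 11-point 3-fold dilution series.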

CDK1 = target: T2, CDK1 (Homo sapiens, UniProt P06493); test: KdELECT binding assay, CDK1; settings: CDK1, Table 9
T2 construct: made in house; host or cells: E. coli BL21-derived host (T7 phage) or HEK-293 ('BEK-293' [sic])
Description: (§1) Compounds were tested using a KdELECT. Kinase-tagged T7 phage strains were prepared in an E. coli host derived from the BL21 strain. E. coli were grown to log-phase and infected with T7 phage and incubated with shaking at 32° C. until lysis. The lysates were centrifuged and filtered to remove cell debris. The remaining kinases were produced in BEK-293 cells and subsequently tagged with DNA for qPCR detection. Streptavidin-coated magnetic beads were treated with biotinylated small molecule ligands for 30 minutes at room temperature to generate affinity resins for kinase assays. The liganded beads were blocked with excess biotin and washed with blocking buffer (SeaBlock (Pierce), 1% BSA, 0.05% Tween 20, 1 mM DTT) to remove unbound ligand and to reduce non-specific binding. Binding reactions were assembled by combining kinases, liganded affinity beads, and test compounds in 1× binding buffer (20% SeaBlock, 0.17×PBS, 0.05% Tween 20, 6 mM DTT). Test compounds were prepared as 111× stocks in 100% DMSO. Kd values were determined using an 11-point 3-fold compound dilution series with three DMSO control points. All compounds for Kd measurements are distributed by acoustic transfer (non-contact dispensing) in 100% DMSO. The compounds were then diluted directly into the assays such that the final concentration of DMSO was 0.9%. All reactions performed in polypropylene 384-well plate. Each was a final volume of 0.02 mL. The assay plates were incubated at room temperature with shaking for 1 hour and the affinity beads were washed with wash buffer (lx PBS, 0.05% Tween 20). The beads were then re-suspended in elution buffer (lx PBS, 0.05% Tween 20, 0.5 μM nonbiotinylated affinity ligand) and incubated at room temperature with shaking for 30 minutes. The kinase concentration in the eluates was measured by qPCR.

CDK2 = target: T3, CDK2 (Homo sapiens, UniProt P24941); test: KdELECT binding assay, CDK2; settings: CDK2, Table 8
T3 construct: made in house; host or cells: E. coli BL21-derived host (T7 phage) or HEK-293 ('BEK-293' [sic])
Description: as §1, with “All reactions performed in polypropylene 384-well plate. Each was a final volume of 0.02 mL. The assay plates were incubated at room temperature with shaking for 1 hour and the affinity beads were washed with wash buffer (lx PBS, 0.05% Tween 20). The beads were then re-suspended in elution buffer (lx PBS, 0.05% Tween 20, 0.5 μM nonbiotinylated affinity ligand) and incubated at room temperature with shaking for 30 minutes.” left out

T1 sequence (P50750 whole entry): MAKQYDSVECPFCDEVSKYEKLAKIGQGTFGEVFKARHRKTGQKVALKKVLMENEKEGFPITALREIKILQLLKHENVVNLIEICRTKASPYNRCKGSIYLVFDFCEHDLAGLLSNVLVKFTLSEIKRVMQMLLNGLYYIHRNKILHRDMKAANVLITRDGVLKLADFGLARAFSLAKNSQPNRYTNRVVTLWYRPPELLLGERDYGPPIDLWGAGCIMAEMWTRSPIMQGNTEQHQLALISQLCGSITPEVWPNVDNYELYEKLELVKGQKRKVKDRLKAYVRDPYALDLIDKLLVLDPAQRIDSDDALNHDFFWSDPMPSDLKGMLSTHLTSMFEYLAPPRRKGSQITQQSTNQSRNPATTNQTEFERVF
T2 sequence (P06493 whole entry): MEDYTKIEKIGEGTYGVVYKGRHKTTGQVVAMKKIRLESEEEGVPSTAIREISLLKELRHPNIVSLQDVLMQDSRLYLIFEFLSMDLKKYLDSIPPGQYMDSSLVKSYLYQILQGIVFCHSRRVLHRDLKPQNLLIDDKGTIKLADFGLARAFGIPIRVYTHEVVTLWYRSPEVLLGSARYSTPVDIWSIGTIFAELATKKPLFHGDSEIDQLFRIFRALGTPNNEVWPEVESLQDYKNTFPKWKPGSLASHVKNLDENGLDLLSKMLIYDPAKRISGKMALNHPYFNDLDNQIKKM

| Structure (SMILES) | Kd (CDK9) [nM] | Kd (CDK1) [nM] | Kd (CDK2) [nM] |
| --- | --- | --- | --- |
| CCc1cnn2c(NCc3ccc(OCCN(C)c4ncc(C(=O)N[C@H]5C(C)(C)[C@H](Oc6ccc(C#N)c(Cl)c6)C5(C)C)cn4)nc3)cc(N3CCCC[C@H]3CCO)nc12 [Compound I-1] | 50 to 500 | – | – |
| CCc1cnn2c(NCc3ccc(OCCOCCOCCOCCOCCN(C)c4ncc(C(=O)N[C@H]5C(C)(C)[C@H](Oc6ccc(C#N)c(Cl)c6)C5(C)C)cn4)nc3)cc(N3CCCC[C@H]3CCO)nc12 [Compound I-3] | 50 to 500 | – | – |
| CCc1cnn2c(NCc3ccc(OCCOC4CCN(c5ncc(C(=O)N[C@H]6C(C)(C)[C@H](Oc7ccc(C#N)c(Cl)c7)C6(C)C)cn5)CC4)nc3)cc(N3CCCC[C@H]3CCO)nc12 [Compound I-7, N-((1r,3r)-3-(3-chloro-4-cyanophenoxy)-2,2,4,4-tetramethylcyclobutyl)-2-(4-(2-((5-(((3-ethyl-5-((S)-2-(2-hydroxyethyl)piperidin-1-yl)pyrazolo[1,5-a]pyrimidin-7-yl)amino)methyl)pyridin-2-yl)oxy)ethoxy)piperidin-1-yl)pyrimidine-5-carboxamide] | 500 to 2500 | – | – |
| CCc1cnn2c(NCc3ccc(OCCOCCOCCOCCOCCOC4CCN(c5ncc(C(=O)N[C@H]6C(C)(C)[C@H](Oc7ccc(C#N)c(Cl)c7)C6(C)C)cn5)CC4)nc3)cc(N3CCCC[C@H]3CCO)nc12 [Compound I-9] | 500 to 2500 | – | – |
| CC1(C)[C@H](NC(=O)c2cnc(N3CCC(OCCNS(=O)(=O)c4ccc(Nc5ncc(Br)c(Nc6cccc(F)c6C(N)=O)n5)cc4)CC3)nc2)C(C)(C)[C@H]1Oc1ccc(C#N)c(Cl)c1 [Compound I-13, 2-(4-(2-((4-((5-bromo-4-((2-carbamoyl-3-fluorophenyl)amino)pyrimidin-2-yl)amino)phenyl)sulfonamido)ethoxy)piperidin-1-yl)-N-((1 r,3r)-3-(3-chloro-4-cyanophenoxy)-2,2,4,4-tetramethylcyclobutyl)pyrimidine-5-carboxamide] | > 2500 | – | – |
| CCc1cnn2c(NCc3ccc(OCCCCOCCOC4CCN(c5ncc(C(=O)N[C@H]6C(C)(C)[C@H](Oc7ccc(C#N)c(Cl)c7)C6(C)C)cn5)CC4)nc3)cc(N3CCCC[C@H]3CCO)nc12 [Compound I-34] | 500 to 2500 | – | – |
| CCc1cnn2c(NCc3ccc(OCCN4CCN(CC5CCN(c6ncc(C(=O)N[C@H]7C(C)(C)[C@H](Oc8ccc(C#N)c(Cl)c8)C7(C)C)cn6)CC5)CC4)nc3)cc(N3CCCC[C@H]3CCO)nc12 [Compound I-41] | 50 to 500 | > 2500 | – |
| CCc1cnn2c(NCc3ccc(OCCOCCOCCOC4CCN(c5ccc(C(=O)N[C@H]6C(C)(C)[C@H](Oc7ccc(C#N)c(Cl)c7)C6(C)C)nn5)CC4)nc3)cc(N3CCCC[C@H]3CCO)nc12 [Compound I-44, N-((1r,3r)-3-(3-chloro-4-cyanophenoxy)-2,2,4,4-tetramethylcyclobutyl)-6-(4-(2-(2-(2-((5-(((3-ethyl-5-((S)-2-(2-hydroxyethyl)piperidin-1-yl)pyrazolo[1,5-a]pyrimidin-7-yl)amino)methyl)pyridin-2-yl)oxy)ethoxy)ethoxy)ethoxy)piperidin-1-yl)pyridazine-3-carboxamide] | 50 to 500 | – | – |
| CCc1cnn2c(NCc3ccc(OCCOCC4CCN(CC5CCN(c6ncc(C(=O)N[C@H]7C(C)(C)[C@H](Oc8ccc(C#N)c(Cl)c8)C7(C)C)cn6)CC5)CC4)nc3)cc(N3CCCC[C@H]3CCO)nc12 [Compound I-45] | < 50 | – | – |
| CCc1cnn2c(NCc3ccc(OCC4CCN(CC5CCN(c6ncc(C(=O)N[C@H]7C(C)(C)[C@H](Oc8ccc(C#N)c(Cl)c8)C7(C)C)cn6)CC5)CC4)nc3)cc(N3CCCC[C@H]3CCO)nc12 [Compound I-51] | 50 to 500 | > 2500 | – |
| Cc1ncc(-c2nc(Nc3ccc(C(=O)N4CC[C@H](N(C)CCOC5CCN(c6ncc(C(=O)N[C@H]7C(C)(C)[C@H](Oc8ccc(C#N)c(Cl)c8)C7(C)C)cn6)CC5)C4)cc3)ncc2F)n1C(C)C [Compound I-95, N-[3-(3-chloro-4-cyano-phenoxy)-2,2,4,4-tetramethyl-cyclobutyl]-2-[4-[2-[[(3S)-1-[4-[[5-fluoro-4-(3-isopropyl-2-methyl-imidazol-4-yl)pyrimidin-2-yl]amino]benzoyl]pyrrolidin-3-yl]-methyl-amino]ethoxy]-1-piperidyl]pyrimidine-5-carboxamide] | 50 to 500 | – | – |

Results, then the molecule that gave them:

| Kd (CDK9) [nM] | Kd (CDK1) [nM] | Kd (CDK2) [nM] | Structure (SMILES) |
| --- | --- | --- | --- |
| 50 to 500 | > 2500 | > 2500 | CCc1cnn2c(NCc3ccc(OCCOCCOCCOC4CCN(c5ncc(C(=O)N[C@H]6C(C)(C)[C@H](Oc7ccc(C#N)c(Cl)c7)C6(C)C)cn5)CC4)nc3)cc(N3CCCC[C@H]3CCO)nc12 [Compound I-8] |
| < 50 | > 2500 | – | CCc1cnn2c(NCc3ccc(COCCN4CCN(CC5CCN(c6ncc(C(=O)N[C@H]7C(C)(C)[C@H](Oc8ccc(C#N)c(Cl)c8)C7(C)C)cn6)CC5)CC4)nc3)cc(N3CCCC[C@H]3CCO)nc12 [Compound I-42] |
| < 50 | – | – | CCc1cnn2c(NCc3ccc(OC4CCN(CC5CCN(c6ncc(C(=O)N[C@H]7C(C)(C)[C@H](Oc8ccc(C#N)c(Cl)c8)C7(C)C)cn6)CC5)CC4)nc3)cc(N3CCCC[C@H]3CCO)nc12 [Compound I-46] |
| > 2500 | – | – | CCc1cnn2c(NCc3ccc(OCCN4CCN(CC5CCN(c6ncc(C(=O)N[C@H]7C(C)(C)[C@H](Oc8ccc(C#N)c(Cl)c8)C7(C)C)cn6)CC5)CC4)nc3)cc(-c3ccccc3)nc12 [Compound I-47, N-((1r,3r)-3-(3-chloro-4-cyanophenoxy)-2,2,4,4-tetramethylcyclobutyl)-2-(4-((4-(2-((5-(((3-ethyl-5-phenylpyrazolo[1,5-a]pyrimidin-7-yl)amino)methyl)pyridin-2-yl)oxy)ethyl)piperazin-1-yl)methyl)piperidin-1-yl)pyrimidine-5-carboxamide] |
| < 50 | – | – | CC(C)n1cc(-c2ccnc3[nH]c(C4CCN(CCN5CCN(CC6CCN(c7ncc(C(=O)NC8C(C)(C)C(Oc9ccc(C#N)c(Cl)c9)C8(C)C)cn7)CC6)CC5)CC4)cc23)ccc1=O (stereo not drawn) [Compound I-74, N-[3-(3-chloro-4-cyano-phenoxy)-2,2,4,4-tetramethyl-cyclobutyl]-2-[4-[[4-[2-[4-[4-(1-isopropyl-6-oxo-3-pyridyl)-1H-pyrrolo [2,3-b]pyridin-2-yl]-1-piperidyl]ethyl]piperazin-1-yl]methyl]-1-piperidyl]pyrimidine-5-carboxamide] |
| 500 to 2500 | – | – | CC1(C)[C@H](NC(=O)c2cnc(N3CCC(CN4CCN(CCN5C/C=C/CCOc6cccc(c6)-c6ccnc(n6)Nc6cccc(c6)C5)CC4)CC3)nc2)C(C)(C)[C@H]1Oc1ccc(C#N)c(Cl)c1 [Compound I-94] |
| 50 to 500 | – | – | Cc1ncc(-c2nc(Nc3ccc(C(=O)N4CC[C@H](N(C)CCOCCOCCOC5CCN(c6ncc(C(=O)N[C@H]7C(C)(C)[C@H](Oc8ccc(C#N)c(Cl)c8)C7(C)C)cn6)CC5)C4)cc3)ncc2F)n1C(C)C [Compound I-96] |
| 50 to 500 | – | – | Cc1ncc(-c2nc(Nc3ccc(C(=O)N4CC[C@H](N(C)CCOCCOCCOCCOCCOC5CCN(c6ncc(C(=O)N[C@H]7C(C)(C)[C@H](Oc8ccc(C#N)c(Cl)c8)C7(C)C)cn6)CC5)C4)cc3)ncc2F)n1C(C)C [Compound I-97] |
